# Assay results published in patent publication US7153869B2, “Substituted amino acids as erythropoietin mimetics” (priority 1998, dated 2006).
# Like-named read-outs stand apart in the source and are kept apart here.
# Biological target: T1, EBP-Ig (N-terminal 225 amino acids of the human EPO receptor joined to an Ig heavy chain) (Homo sapiens, UniProt P19235)
# T1 construct: Ig heavy chain (fusion partner); made in house; host or cells: NSO cells (secreted into conditioned media)
# T1 sequence (P19235 25-250 limits assumed): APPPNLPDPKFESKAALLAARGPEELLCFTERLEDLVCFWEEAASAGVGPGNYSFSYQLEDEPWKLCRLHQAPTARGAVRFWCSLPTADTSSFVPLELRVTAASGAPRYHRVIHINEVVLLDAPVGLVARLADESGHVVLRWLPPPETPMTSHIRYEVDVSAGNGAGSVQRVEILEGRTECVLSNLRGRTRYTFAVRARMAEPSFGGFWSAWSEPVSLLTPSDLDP
# Assay: Inhibition of [125I]EPO binding to immobilized EBP-Ig (EPO binding protein-Ig), scintillation Flash plate competition assay
# Conditions: for IC30 μM (Inhibition of EPO binding to EBP-Ig): 0–500 μM test compound; for % inh @ 50 μM (Inhibition of EPO binding to EBP-Ig): 50 μM test compound, average % inhibition
# Excerpt: The interaction of biotin and streptavidin is frequently employed to capture and effectively immobilize reagents useful in assay protocols and has been employed here as a simple method to capture and immobilize EBP-Ig. EBP-Ig is initially randomly modified with an amine reactive derivative of biotin to produce biotinylated-EBP-Ig. Use of streptavidin coated plates allows the capture of the biotinylated EBP-Ig on the surface of a scintillant impregnated coated well (Flash plates, NEN-DuPont). […] The amount of light produced was quantified to estimate the amount of ligand binding. The specific assay format was suitable for the multi-well plate capacity of a Packard TopCount Microplate Scintillation counter.
# Biotinylated EBP-Ig was prepared as follows. EBP-Ig (3 mL, OD280 2.9) was exchanged into 50 mM sodium bicarbonate, pH 8.5 using a Centriprep 10 ultrafiltration device. The final volume of the exchanged protein was 1.2 mL (OD280 2.6, representing about 2 mg total protein). 10 μL of a 4 mg/ml solution of NHS-LC-Biotin (Pierce) was added and the reaction mixture placed on ice in the dark for two hours. Unreacted biotin was removed by exchange of the reaction buffer into PBS in a Centriprep 10 device and the protein reagent aliquoted and stored at −70° C.
# All wells were adjusted to a final DMSO concentration of 5%. […] After all additions were made, the plate was covered with an adhesive top seal and placed in the dark at room temperature overnight. The next day all liquid was aspirated from the wells to limit analyte dependent quench of the signal, and the plates were counted on a Packard TOPCOUNT Microplate Scintillation Counter. […] Corrected total binding (CTB) was calculated as: TB−NSB=CTB. […] Table 1 lists the average % inhibition, and if determined the IC50 and IC30 values for compounds of Formula I, where the compound numbers refer to the compounds in the tables accompanying the preparative examples.
# [1] = read-out: IC50, μM (Inhibition of EPO binding to EBP-Ig), 0.5 nM [125I]EPO, concentration reducing corrected total binding to 50%
# [2] = read-out: % inh @ 50 μM (Inhibition of EPO binding to EBP-Ig)
structure (smiles),measurement,setting,value
O=C(O)C(F)(F)F.O=C(O)CC[C@H](NC/C=C/c1cccc(Oc2ccc(Cl)c(Cl)c2)c1)C(=O)O [compound 332],EPO/EBP-Ig % inh @ 50 μM,"50 μM compound, Table 19A",17%
CC(C)(C)OC(=O)NCCCCC(C(=O)NCc1ccc(OCC=Cc2ccccc2)cc1)N(CC=Cc1ccccc1)CC=Cc1ccccc1 (stereo not shown) [compound 216],EPO/EBP-Ig % inh @ 50 μM,"50 μM compound, Table 10",10%
Cc1ccc(S(=O)(=O)Nc2ccc(/C=C/CN(Cc3ccc(OCc4ccccc4)cc3)C(CCC(=O)O)C(=O)O)cc2)cc1 (stereo not shown) [compound 87],EPO/EBP-Ig % inh @ 50 μM,"Table 5, 50 μM",23%
"CC(C)(C)OC(=O)CCC(C(=O)NCCOCCOCCNC(=O)C(CCC(=O)OC(C)(C)C)N(Cc1ccc(OCc2ccccc2)cc1)Cc1ccc(OCc2ccccc2)cc1)N(Cc1ccc(OCc2ccccc2)cc1)Cc1ccc(OCc2ccccc2)cc1 (stereo not shown) [cpd 245, [N,N-bis(4-Benzyloxybenzyl)Glu(O-t-Bu)-NHCH2CH2OCH2]2]",EPO/EBP-Ig % inh @ 50 μM,"Table 11, 50 μM",0%
O=C(O)CCC(=O)NCCCCC(C(=O)NCCOCCOCCNC(=O)C(CCCCNC(=O)CCC(=O)O)N(Cc1ccc(OCc2ccccc2)cc1)Cc1ccc(OCc2ccccc2)cc1)N(Cc1ccc(OCc2ccccc2)cc1)Cc1ccc(OCc2ccccc2)cc1 (stereo not shown) [compound 262],IC30 μM (Inhibition of EPO binding to EBP-Ig),0.5 nM [125I]EPO,1 µM
same,IC50,[1],1.5 µM
COc1cccc(CCNC(=O)C(CCCCN)N(C/C=C/c2ccccc2)C/C=C/c2ccccc2)c1 (stereo not shown) [compound 222],IC30 μM (Inhibition of EPO binding to EBP-Ig),0.5 nM [125I]EPO,5 µM
same,EPO/EBP-Ig % inh @ 50 μM,"50 μM compound, Table 10",56%
same,% inh @ 50 μM (Inhibition of EPO binding to EBP-Ig),0.5 nM [125I]EPO,56%
Cc1ccc(Oc2cccc(CN(Cc3cccc(NCc4ccccc4)c3)C(CC(=O)O)C(=O)O)c2)cc1 (stereo not shown) [compound 75],EPO/EBP-Ig % inh @ 50 μM,"Table 4, 50 μM",−2%
COC(=O)C(CCC(=O)O)N(C/C=C/c1ccccc1)C/C=C/c1ccccc1 (stereo not shown) [compound 92],EPO/EBP-Ig % inh @ 50 μM,"Table 6, 50 μM",20%
CSCC[C@H](NC/C=C/c1ccc(C(F)(F)F)cc1)C(=O)O.O=C(O)C(F)(F)F [compound 365],EPO/EBP-Ig % inh @ 50 μM,50 μM compound,0%
COC(=O)C(CCCCN)N(C/C=C/c1cccc(N)c1)C/C=C/c1cccc(N)c1 (stereo not shown) [compound 185],EPO/EBP-Ig % inh @ 50 μM,"50 μM compound, Table 9",29%
O=C(O)CCC(C(=O)NCCOCCOCCNC(=O)C(CCC(=O)O)N(CC=Cc1ccccc1)CC=Cc1ccccc1)N(CC=Cc1ccccc1)CC=Cc1ccccc1 (stereo not shown) [compound 251],IC30 μM (Inhibition of EPO binding to EBP-Ig),0.5 nM [125I]EPO,10 µM
same,EPO/EBP-Ig % inh @ 50 μM,"50 μM compound, Table 12",49%
same,% inh @ 50 μM (Inhibition of EPO binding to EBP-Ig),0.5 nM [125I]EPO,49%
same,IC50,[1],45 µM
"Cc1ccc(C(=O)Nc2cccc(CN(Cc3cccc(NC(=O)c4ccc(C)cc4)c3)C(CC(=O)O)C(=O)O)c2)cc1 (stereo not shown) [cpd 64, N,N-bis(3-(4-Methylbenzoyl)aminobenzyl)Asp-OH]",EPO/EBP-Ig % inh @ 50 μM,"Table 4, 50 μM",−4%
CC(C)(C)OC[C@@H](C(=O)O)N(C/C=C/c1cccc(Oc2ccc(C(C)(C)C)cc2)c1)C/C=C/c1cccc(Oc2ccc(C(C)(C)C)cc2)c1 [compound 304],EPO/EBP-Ig % inh @ 50 μM,"50 μM compound, Table 16A",19%
O=C(O)CCC(C(=O)O)N(C/C=C/c1ccc(NC(=O)c2ccc(-c3ccccc3)cc2)cc1)Cc1ccc(OCc2ccccc2)cc1 (stereo not shown) [compound 90],EPO/EBP-Ig % inh @ 50 μM,"Table 5, 50 μM",29%
COc1ccc(CCNC(=O)C(CCCCNC(=O)Nc2ccc(Oc3ccccc3)cc2)N(C/C=C/c2ccccc2)C/C=C/c2ccccc2)cc1 (stereo not shown) [compound 229],EPO/EBP-Ig % inh @ 50 μM,"50 μM compound, Table 10",22%
COC(=O)C(CCCCN)N(Cc1cccc(OCc2ccccc2)c1)Cc1cccc(OCc2ccccc2)c1 (stereo not shown) [compound 112],IC30 μM (Inhibition of EPO binding to EBP-Ig),0.5 nM [125I]EPO,2 µM
same,% inh @ 50 μM (Inhibition of EPO binding to EBP-Ig),0.5 nM [125I]EPO,59%
same,EPO/EBP-Ig % inh @ 50 μM,"Table 7, 50 μM",59%
same,IC50,[1],10 µM
CC(C)(C)c1ccc(Oc2cccc(/C=C/CN(C/C=C/c3cccc(Oc4ccc(C(C)(C)C)cc4)c3)[C@@H](CO)C(=O)O)c2)cc1.O=C(O)C(F)(F)F [compound 309],EPO/EBP-Ig % inh @ 50 μM,"50 μM compound, Table 16A",13%
O=C(O)CC(C(=O)NCCCOCCOCCOCCCNC(=O)C(CC(=O)O)N(Cc1ccc(OCc2ccccc2)cc1)Cc1ccc(OCc2ccccc2)cc1)N(Cc1ccc(OCc2ccccc2)cc1)Cc1ccc(OCc2ccccc2)cc1 (stereo not shown) [compound 244],IC50,,28 µM
same,IC30 μM (Inhibition of EPO binding to EBP-Ig),0.5 nM [125I]EPO,1 µM
same,inhibition at 50 µM,[2],66%
same,inhibition at 50 µM,"read-out: EPO/EBP-Ig % inh @ 50 μM, Table 11, 50 μM",66%
O=C(O)CC(C(=O)O)N(Cc1cccc(NCc2ccccc2)c1)Cc1cccc(Oc2ccccc2)c1 (stereo not shown) [compound 63],EPO/EBP-Ig % inh @ 50 μM,"Table 4, 50 μM",20%
COC(=O)C(CCCCN)N(C/C=C/c1cccc(Oc2ccccc2)c1)Cc1cccc(Oc2ccccc2)c1 (stereo not shown) [compound 137],IC50,,30 µM
same,IC30 μM (Inhibition of EPO binding to EBP-Ig),0.5 nM [125I]EPO,5 µM
same,inhibition at 50 µM,[2],60%
O=C(O)CCC(C(=O)O)N(C/C=C/c1cccc(Oc2cccc(C(F)(F)F)c2)c1)C/C=C/c1cccc(Oc2cccc(C(F)(F)F)c2)c1 (stereo not shown) [compound 105],IC50,,35 µM
same,IC30 μM (Inhibition of EPO binding to EBP-Ig),0.5 nM [125I]EPO,25 µM
same,inhibition at 50 µM,[2],70%
same,inhibition at 50 µM,"read-out: EPO/EBP-Ig % inh @ 50 μM, Table 6, 50 μM",70%
CC(=O)O.COC(=O)[C@H](CO)N(C/C=C/c1cccc(Oc2cccc(C(F)(F)F)c2)c1)C/C=C/c1cccc(Oc2cccc(C(F)(F)F)c2)c1 [compound 297],EPO/EBP-Ig % inh @ 50 μM,"50 μM compound, Table 16A",0%
CCCCNC(=O)C(CCCCNC(=O)c1ccccc1)N(C/C=C/c1ccccc1)C/C=C/c1ccccc1 (stereo not shown) [compound 208],EPO/EBP-Ig % inh @ 50 μM,"50 μM compound, Table 10",22%
"CC(C)(C)OC(=O)CC(C(=O)OC(C)(C)C)N(CC=Cc1cccc(Oc2ccccc2)c1)CC=Cc1cccc(Oc2ccccc2)c1 (stereo not shown) [cpd 106, N,N-bis(3-Phenoxycinnamyl)Asp(O-t-Bu)-O-t-Bu]",EPO/EBP-Ig % inh @ 50 μM,"Table 6, 50 μM",20%
Cc1ccc(S(=O)(=O)Nc2cccc(CN(Cc3cccc(NS(=O)(=O)c4ccc(C)cc4)c3)C(CC(=O)O)C(=O)O)c2)cc1 (stereo not shown) [compound 65],EPO/EBP-Ig % inh @ 50 μM,"Table 4, 50 μM",−7%
COC(=O)C(CCC(=O)OC(C)(C)C)N(CC=Cc1cccs1)CC=Cc1cccs1 (stereo not shown) [compound 59],EPO/EBP-Ig % inh @ 50 μM,"Table 3, 50 μM",26%
COC(=O)[C@H](COC(C)(C)C)N(C/C=C/c1ccc(-c2ccccc2)cc1)C/C=C/c1ccc(-c2ccccc2)cc1 [compound 291],EPO/EBP-Ig % inh @ 50 μM,"50 μM compound, Table 16A",17%
CC(C)(C)OC(=O)NCCCCC(C(=O)NCCCOCCCCOCCCNC(=O)C(CCCCNC(=O)OC(C)(C)C)N(Cc1ccc(OCc2ccccc2)cc1)Cc1ccc(OCc2ccccc2)cc1)N(Cc1ccc(OCc2ccccc2)cc1)Cc1ccc(OCc2ccccc2)cc1 (stereo not shown) [compound 258],EPO/EBP-Ig % inh @ 50 μM,"50 μM compound, Table 13",−24%
"COC(=O)C(CCC(=O)O)NCC=Cc1cccc(Oc2ccccc2)c1 (stereo not shown) [cpd 325, N-(3-Phenoxycinnamyl)Glu-OMe]",EPO/EBP-Ig % inh @ 50 μM,"50 μM compound, Table 19A",6%
COC(=O)[C@H](COC(C)(C)C)NC/C=C/c1ccc(-c2ccccc2)cc1 [compound 353],EPO/EBP-Ig % inh @ 50 μM,"50 μM compound, Table 20A",24%
COC(=O)C(CCCCN)N(Cc1ccc(OCc2ccccc2)cc1)Cc1cccc(NC(=O)c2ccc3ccccc3c2)c1 (stereo not shown) [compound 121],IC30 μM (Inhibition of EPO binding to EBP-Ig),0.5 nM [125I]EPO,6 µM
same,% inh @ 50 μM (Inhibition of EPO binding to EBP-Ig),0.5 nM [125I]EPO,45%
same,EPO/EBP-Ig % inh @ 50 μM,"Table 7, 50 μM",45%
NCCCCC(C(=O)O)N(CC=Cc1cccs1)CC=Cc1cccs1 (stereo not shown) [cpd 50],EPO/EBP-Ig % inh @ 50 μM,"Table 3, 50 μM",−6%
O=C(O)CCC(C(=O)O)N(C/C=C/c1ccc(NC(=O)c2ccncc2)cc1)Cc1ccc(OCc2ccccc2)cc1 (stereo not shown) [compound 86],% inh @ 50 μM (Inhibition of EPO binding to EBP-Ig),0.5 nM [125I]EPO,37%
same,EPO/EBP-Ig % inh @ 50 μM,"Table 5, 50 μM",37%
CC(=O)O.COC(=O)[C@H](CO)N(C/C=C/c1ccccc1)C/C=C/c1ccccc1 [compound 310],EPO/EBP-Ig % inh @ 50 μM,"50 μM compound, Table 16A",34%
Cc1ccc(Oc2cccc(CN(Cc3cccc(NCc4c(F)c(F)c(F)c(F)c4F)c3)C(CC(=O)O)C(=O)O)c2)cc1 (stereo not shown) [compound 72],EPO/EBP-Ig % inh @ 50 μM,"Table 4, 50 μM",−14%
